Read-outs that look alike come from different tables or passages of the source.

As a reminder, the melting point is the temperature, or range, at which the solid turns liquid.

Series [1] relates to JJN-3 (NIK translocated) multiple myeloma cells. Kind of series: Antiproliferative activity on JJN-3 multiple myeloma cells (CellTiter-Glo). It is filed as cell-based, human. The conditions noted are these: Homo sapiens, JJN-3 (NIK translocated) cells, 96 hr treatment, averaged values, read-out: JJN-3 Proliferation inhibition (IC50 (nM)). Here is the method: (§1) Determination of Antiproliferative Activity on JJN-3 (NIK Translocated) and KMS12-BM (NIK WT) Multiple Myeloma Cells
(§2) All compounds tested were dissolved in DMSO and further dilutions were made in culture medium. Final DMSO concentration was 0.3% (v/v) in cell proliferation assays. Viability was assessed using CellTiter-Glo cell viability assay kit (Promega). […] Cells were routinely kept as suspension cells at 37° C. in a humidified 5% CO2 atmosphere. Cells were passaged at a seeding density of 0.2×10^6/ml twice a week. Cells were seeded in black tissue culture treated 96-well plates (Perkin Elmer). Densities used for plating ranged from 15000 (JJN3) to 20000 (KMS12BM) cells per well in a total volume of 135 μl medium. Drugs and/or solvents were added (15 μl) to a final volume of 150 μl. Following 96 hr of treatment, plates were removed from the incubator and allowed to equilibrate to room temperature for approx 10 min. 75 μl CellTiter-Glo reagent was added to each well that was then covered (Perkin Elmer Topseal) and shaken on plate shaker for 10 min. Luminescence was measured on a HTS Topcount (Perkin Elmer). […] For initial screening purposes, compounds were tested using a 9 point dilution curve (serial 1:3 dilutions). For each experiment, controls (containing no drug) and a blank incubation (containing cells read at the time of compound addition) were run in parallel. The blank value was subtracted from all control and sample values. For each sample, the mean value for cell growth (in relative light units) was expressed as a percentage of the mean value for cell growth of the control.
(In general: ATP-based viability assays read luminescence as a measure of living cells.)

Series [2] has as its system KMS12-BM (NIK WT) multiple myeloma cells. Kind of series: Antiproliferative activity on KMS12-BM multiple myeloma cells (CellTiter-Glo). The conditions noted are these: Homo sapiens, KMS-12-BM, 96 hr treatment, averaged values, read-out: KMS-12 Proliferation inhibition (IC50 (nM)). It is filed as cell-based, human. Here is the method:
as §1, §2

The target in series [3] is recombinant human NF-kappaB-inducing Kinase (NIK/MAP3K14) (Homo sapiens, UniProt Q99558). Kind of series: Inhibition of auto-phosphorylation of recombinant human NIK/MAP3K14 activity (AlphaScreen). The class given is biochemical. The conditions noted are these: 25 microM ATP, averaged over all measurements on all batches. The method, then:
Pharmacological Part Biological assay A Inhibition of auto-phosphorylation of recombinant human NF-kappaB-inducing Kinase (NIK/MAP3K14) Activity (AlphaScreen®)
NIK/MAP3K14 auto-phosphorylation activity was measured using the AlphaScreen® (αscreen) format (Perkin Elmer). All compounds tested were dissolved in dimethyl sulfoxide (DMSO) and further dilutions were made in assay buffer. Final DMSO concentration was 1% (v/v) in assays. Assay buffer was 50 mM Tris pH 7.5 containing 1 mM EGTA (ethylene glycol tetraacetic acid), 1 mM DTT (dithiothreitol), 0.1 mM Na3VO4, 5 mM MgCl2, 0.01% Tween® 20. Assays were carried out in 384 well Alphaplates (Perkin Elmer). […] Incubations were initiated by addition of GST-tagged NIK/MAP3K14 enzyme, carried out for 1 h at 25° C. and terminated by addition of stop buffer containing anti-phospho-IKK Ser176/180 antibody. Protein A Acceptor and Glutathione-Donor beads were added before reading using an EnVision® Multilabel Plate Reader (Perkin Elmer). Signal obtained in the wells containing blank samples was subtracted from all other wells and IC50's were determined by fitting a sigmoidal curve to % inhibition of control versus Log10 compound concentration.

Chain of recombinant human NF-kappaB-inducing Kinase (NIK/MAP3K14) (Q99558 whole entry): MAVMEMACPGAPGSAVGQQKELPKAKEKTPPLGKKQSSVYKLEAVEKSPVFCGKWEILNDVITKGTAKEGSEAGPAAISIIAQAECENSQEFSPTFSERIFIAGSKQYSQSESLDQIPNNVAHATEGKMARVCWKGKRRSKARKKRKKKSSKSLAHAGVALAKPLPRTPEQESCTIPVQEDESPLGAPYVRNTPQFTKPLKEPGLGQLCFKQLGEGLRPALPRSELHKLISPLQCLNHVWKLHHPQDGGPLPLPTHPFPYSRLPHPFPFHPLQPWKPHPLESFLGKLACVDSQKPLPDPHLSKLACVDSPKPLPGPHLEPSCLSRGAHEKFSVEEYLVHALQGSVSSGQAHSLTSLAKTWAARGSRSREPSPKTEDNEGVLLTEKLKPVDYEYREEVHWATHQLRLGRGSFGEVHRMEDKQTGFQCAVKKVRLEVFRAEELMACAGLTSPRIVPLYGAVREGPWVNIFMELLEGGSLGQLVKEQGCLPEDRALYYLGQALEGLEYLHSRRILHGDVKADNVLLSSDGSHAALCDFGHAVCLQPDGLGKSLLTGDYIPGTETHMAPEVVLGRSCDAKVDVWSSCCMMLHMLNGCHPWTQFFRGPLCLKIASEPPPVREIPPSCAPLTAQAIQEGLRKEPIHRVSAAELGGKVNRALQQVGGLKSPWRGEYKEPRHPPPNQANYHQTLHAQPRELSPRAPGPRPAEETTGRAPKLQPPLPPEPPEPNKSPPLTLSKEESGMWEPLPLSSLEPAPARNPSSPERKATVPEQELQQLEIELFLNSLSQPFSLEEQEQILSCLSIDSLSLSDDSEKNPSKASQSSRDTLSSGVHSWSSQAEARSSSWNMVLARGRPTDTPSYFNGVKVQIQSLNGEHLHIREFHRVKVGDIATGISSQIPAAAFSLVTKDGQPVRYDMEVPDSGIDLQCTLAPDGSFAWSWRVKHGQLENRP

Regarding `[2H]C([2H])([2H])Oc1ncccc1Nc1nccc(-c2cc(C#N)c3c(c2)C(C)(CO)CN3)n1` (stereo not shown) [Compound 17], the melting point was 248 °C. Further, the IC50 in series [1] (JJN-3, 96 h) amounted to 288 nM. In series [2] (96 h), the IC50 was above 10000 nM. Also, in series [3], the IC50 is 2.5 nM.
The matching figures for `COc1ncccc1Nc1nccc(-c2cc(C#N)c3c(c2)[C@](C)(CO)CN3)n1` [Compound 7]: 245 °C, 1580 nM, above 10000 nM and 15.5 nM.
The matching figures for `COCCOc1nc(C2CC2)ccc1Nc1nccc(-c2cc(C#N)c3c(c2)[C@@](C)(CO)CN3)n1` [Compound 62]: 117 °C, 977 nM, above 10000 nM and 29.5 nM.
For `COCCOc1ncccc1Nc1ncc(F)c(-c2cc(C#N)c3c(c2)[C@@](C)(CO)CN3)n1` [Compound 106], in that order: above 250 °C, 275 nM, 2630 nM and 3.4 nM.
In the case of `COc1ncccc1Nc1ncc(F)c(-c2cc(C#N)c3c(c2)[C@@](C)(CO)CN3)n1` [Compound 103], the melting point was above 250 °C. Also, the IC50 in series [1] (JJN-3, 96 h) was determined as 120 nM. Besides, the IC50 in series [2] (96 h) is 1580 nM. In addition, the IC50 in series [3] amounted to 1 nM.
For `COc1ncccc1Nc1nccc(-c2cc(C#N)c3c(c2)C(C)(CN2CCNCC2)CN3)n1` (stereo not shown) [Compound 111], the melting point was found to be 220 °C. In series [1] (JJN-3, 96 h), the IC50 is 669 nM. For the same compound, in series [2] (96 h), the IC50 was determined as 3160 nM. In series [3], the IC50 was 14.8 nM.
The compound `COCCOc1ccncc1Nc1nccc(-c2cc(C#N)c3c(c2)[C@@](C)(CO)CN3)n1` [Compound 47] yielded a melting point of 215 °C. The IC50 in series [1] (JJN-3, 96 h) was determined as 1120 nM. Further, in series [2] (96 h), the IC50 is above 10000 nM. The IC50 in series [3] worked out at 13.2 nM.
Regarding `COCCNc1nc(OC(C)C)c(Nc2nccc(-c3cc(C#N)c4c(c3)C(C)(CO)CN4)n2)cc1Cl` (stereo not shown) [Compound 13], the melting point is 125 °C. The IC50 in series [1] (JJN-3, 96 h) amounted to 447 nM. Moreover, in series [2] (96 h), the IC50 is above 10000 nM. Besides, the IC50 in series [3] was 28.8 nM.
In turn, `COc1ncc(Cl)cc1Nc1ncc(F)c(-c2cc(C#N)c3c(c2)[C@@](C)(CO)CN3)n1` [Compound 104] yielded a melting point above 250 °C. The IC50 in series [1] (JJN-3, 96 h) stood at 112 nM. Further, the IC50 in series [2] (96 h) was above 10000 nM. The IC50 in series [3] was 11.2 nM.
For `Cn1cc(Cl)cc(Nc2nccc(-c3cc(C#N)c4c(c3)C(C)(CO)CN4)n2)c1=O` (stereo not shown) [Compound 15i], in that order: 295 °C, around 427 nM, above 10000 nM and 3.6 nM.
With `COc1cccnc1Nc1nccc(-c2cc(C#N)c3c(c2)[C@@](C)(CO)CN3)n1` [Compound 24], the melting point came out at 145 °C. The IC50 in series [1] (JJN-3, 96 h) amounted to 6920 nM. Besides, the IC50 in series [2] (96 h) is above 10000 nM. Besides, the IC50 in series [3] turned out to be 123 nM.
For `COC[C@@]1(C)CNc2c(C#N)cc(-c3ccnc(Nc4cc(Cl)cnc4C)n3)cc21` [Compound 122], in that order: 182 °C, 478 nM, 4790 nM and 9.5 nM.
Take `Cc1cc(Nc2nccc(-c3cc(C#N)c4c(c3)C(C)(CO)CN4)n2)nc(C)n1` (stereo not shown) [Compound 127]: the melting point was 333 °C. Also, in series [1] (JJN-3, 96 h), the IC50 is around 7080 nM. Moreover, the IC50 in series [2] (96 h) is above 10000 nM. The IC50 in series [3] is 4.5 nM.
For `CCCCOc1ncccc1Nc1nccc(-c2cc(C#N)c3c(c2)[C@@](C)(CO)CN3)n1` [Compound 40], in that order: 143 °C, 550 nM, 3800 nM and 16.6 nM.
The matching figures for `COc1ncc(Cl)cc1Nc1nccc(-c2cc(C#N)c3c(c2)C(C)(COCCN2CCOCC2)CN3)n1` (stereo not shown) [Compound 121]: 104 °C, 1410 nM, 2510 nM and 117 nM.
The matching figures for `Cc1ccnc(Nc2nccc(-c3cc(C#N)c4c(c3)C(C)(CO)CN4)n2)n1` (stereo not shown) [Compound 126]: 227 °C, 2510 nM, above 10000 nM and 148 nM.
Compound `C[C@]1(CO)CNc2c(C#N)cc(-c3ccnc(Nc4cccnc4OC4CCOCC4)n3)cc21` [Compound 23] registered a melting point of 213 °C. The IC50 in series [1] (JJN-3, 96 h) turned out to be 708 nM. Further, the IC50 in series [2] (96 h) came out at 7410 nM. Moreover, the IC50 in series [3] came to 4.9 nM.
`CC(C)OCCOc1ncc(Cl)cc1Nc1nccc(-c2cc(C#N)c3c(c2)[C@@](C)(CO)CN3)n1` [Compound 21] yielded a melting point of 170 °C. For the same compound, in series [1], the IC50 was 813 nM. Further, in series [2], the IC50 is above 10000 nM. Besides, the IC50 in series [3] is 22.4 nM.
`CC1(CO)CNc2c(C#N)cc(-c3nc(Nc4cc(Cl)cnc4OC4CCOCC4)ncc3F)cc21` (stereo not shown) [Compound 105] showed a melting point of 284 °C. The IC50 in series [1] (JJN-3, 96 h) is 2240 nM. In series [2] (96 h), the IC50 is around 3720 nM. The IC50 in series [3] stood at 30.9 nM.
For `CC1(CO)CNc2c(C#N)cc(-c3ccnc(Nc4cc(Cl)cnc4Cl)n3)cc21` (stereo not shown) [Compound 5], in that order: 261 °C, 170 nM, above 10000 nM and around 8.51 nM.
`CC1(CO)CNc2c(C#N)cc(-c3ccnc(Nc4cncnc4)n3)cc21` (stereo not shown) [Compound 128] gave a melting point of 307 °C. In addition, the IC50 in series [1] (JJN-3, 96 h) worked out at 209 nM. In addition, the IC50 in series [2] (96 h) is around 195 nM. The IC50 in series [3] is 6.3 nM.
For `COc1ncccc1Nc1nccc(-c2cc(C#N)c3c(c2)C(C)(CN2CCOCC2)CN3)n1` (stereo not shown) [Compound 113], in that order: 95 °C, 5750 nM, above 10000 nM and 34.7 nM.
The matching figures for `COc1ncccc1Nc1nccc(-c2cc(C#N)c3c(c2)C(C)(COCCN2CCOCC2)CN3)n1` (stereo not shown) [Compound 117]: 108 °C, above 10000 nM, above 10000 nM and 45.7 nM.
Regarding `C[C@]1(CO)CNc2c(C#N)cc(-c3ccnc(Nc4cccnc4OC[C@H]4CCCO4)n3)cc21` [Compound 43], the melting point stood at 141 °C. Further, in series [1] (JJN-3, 96 h), the IC50 was found to be 115 nM. In series [2] (96 h), the IC50 was above 10000 nM. Further, the IC50 in series [3] is 4 nM.
For `COc1nc(C2CCOCC2)ccc1Nc1nccc(-c2cc(C#N)c3c(c2)[C@@](C)(CO)CN3)n1` [Compound 44], in that order: 217 °C, 81 nM, above 10000 nM and 9.3 nM.
The matching figures for `COCCN(C)c1nc(OC)c(Nc2nccc(-c3cc(C#N)c4c(c3)[C@@](C)(CO)CN4)n2)cc1Cl` [Compound 38]: 215 °C, 79 nM, above 10000 nM and 19.5 nM.
The matching figures for `CNCC1(C)CNc2c(C#N)cc(-c3ccnc(Nc4cccnc4OC)n3)cc21` (stereo not shown) [Compound 108]: 173 °C, 2140 nM, around 3980 nM and 25.1 nM.
Regarding `COc1ncccc1Nc1nccc(-c2cc(C#N)c3c(c2)C(C)(CN(C)CCO)CN3)n1` (stereo not shown) [Compound 114], the melting point amounted to 60 °C. In addition, the IC50 in series [1] (JJN-3, 96 h) came to 3550 nM. Moreover, the IC50 in series [2] (96 h) was above 10000 nM. For the same compound, the IC50 in series [3] came to 32.4 nM.
